Patent US8735398B2 (Bristol-Myers Squibb Company, priority 2009, dated 2014)

Each molecule was assayed on HCV 1b genotype (assay: HCV replicon assay (HCV-neo replicon cells, wild-type)). Conditions: Hepatitis C virus, HCV 1b genotype replicon; class symbol; read-out: EC50 Range against HCV 1b.
Type: cell-based, Hepatitis C virus
Procedure: An HCV Replicon assay was utilized in the present disclosure, and was prepared, conducted and validated as described in commonly owned PCT/US2006/022197 and in O'Boyle et al., Antimicrob. Agents Chemother, 49(4):1346-1353 (April 2005). Assay methods incorporating luciferase reporters have also been used as described (Apath.com).
HCV-neo replicon cells and replicon cells containing resistance substitutions in the NS5A region were used to test the currently described family of compounds.
The compounds were determined to have differing degrees of reduced inhibitory activity on cells containing mutations vs. the corresponding inhibitory potency against wild-type cells. Thus, the compounds of the present disclosure can be effective in inhibiting the function of the HCV NS5A protein and are understood to be as effective in combinations as previously described in application PCT/US2006/022197 and commonly owned WO 04/014852. It should be understood that the compounds of the present disclosure can inhibit multiple genotypes of HCV. […] In one embodiment, compounds of the present disclosure are inhibitory versus 1a, 1b, 2a, 2b, 3a, 4a, and 5a genotypes.
In the case of `O=C(Nc1ccc(-c2cnc(-c3ccc(NC(=O)[C@@H]4CCCN4C(=O)C4CCCCN4Cc4ccccc4)cc3)o2)cc1)[C@@H]1CCCN1C(=O)C1CCCCN1Cc1ccccc1` (stereo partly drawn) [Example D-21, (2S,2′S)-N,N′-(1,3-oxazole-2,5-diyldi-4,1-phenylene)bis(1-((1-benzyl-2-piperidinyl)carbonyl)-2-pyrrolidinecarboxamide)], the EC50 is reported as 1000 to 10000 nM. `O=C(Nc1ccc(-c2cnc(-c3ccc(NC(=O)[C@@H]4CCCN4C(=O)C4(Cc5ccccc5)CCCN4)cc3)o2)cc1)[C@@H]1CCCN1C(=O)C1(Cc2ccccc2)CCCN1` (stereo partly drawn) [Example D-37, (2S,2′S)-N,N′-(1,3-oxazole-2,5-diyldi-4,1-phenylene)bis(1-((2-benzyl-2-pyrrolidinyl)carbonyl)-2-pyrrolidinecarboxamide)] gave an EC50 of 1000 to 10000 nM. `CC(=O)N1CCC[C@H]1C(=O)Nc1ccc(-c2cnc(-c3ccc(NC(=O)[C@@H]4C[C@@H](OC(C)(C)C)CN4C(=O)OCc4ccccc4)cc3)o2)cc1` [MS-2, benzyl (2S,4R)-2-((4-(5-(4-((((2S)-1-acetyl-2-pyrrolidinyl)carbonyl)amino)phenyl)-1,3-oxazol-2-yl)phenyl)carbamoyl)-4-tert-butoxy-1-pyrrolidinecarboxylate] was tested, and the EC50 was 100 to 999 nM. With `O=C(Nc1ccc(-c2nc[nH]c2-c2ccc(NC(=O)[C@@H]3CCCN3C(=O)c3nccc4ccccc34)cc2)cc1)[C@@H]1CCCN1C(=O)c1nccc2ccccc12` [JG-48, (2S,2′S)-N,N′-(1H-imidazole-4,5-diyldi-4,1-phenylene)bis(1-(1-isoquinolinylcarbonyl)-2-pyrrolidinecarboxamide)] the EC50 was 1000 to 10000 nM. Work on `C[C@H](NC(=O)OCc1ccccc1)C(=O)Nc1ccc(-c2nc(CC(=O)O)oc2-c2ccc(NC(=O)[C@H](C)NC(=O)OCc3ccccc3)cc2)cc1` [OL-1, 4,5-bis[4-[[(2S)-1-oxo-2-[[(phenylmethoxy)carbonyl]amino]propyl]amino]phenyl]-2-oxazoleacetic acid] yielded an EC50 of 1000 to 10000 nM. `CO[C@@H](C(=O)N1CCC[C@H]1C(=O)Nc1ccc(-c2cc(-c3ccc(NC(=O)[C@@H]4CCCN4C(=O)[C@H](OC)c4ccccc4)cc3)[nH]n2)cc1)c1ccccc1` [JG-37, (2S,2′S)-N,N′-(1H-pyrazole-3,5-diyldi-4,1-phenylene)bis(1-((2R)-2-methoxy-2-phenylacetyl)-2-pyrrolidinecarboxamide)] was tested, and the EC50 was under 4.57 nM. `CC(=O)N1CCC[C@H]1C(=O)Nc1ccc(-c2nc(-c3ccc(NC(=O)[C@@H]4C=CCN4C(=O)[C@@H]4CCCO4)cc3)cs2)cc1` [Example D-52, (2S)-N-[4-[2-[4-[[[(2S)-1-acetyl-2-pyrrolidinyl]carbonyl]amino]phenyl]-4-thiazolyl]phenyl]-2,5-dihydro-1-[[(2S)-tetrahydro-2-furanyl]carbonyl]-1H-pyrrole-2-carboxamide] was tested, and the EC50 was 1000 to 10000 nM. For `COc1cccc2c(C(=O)N3CCC[C@H]3C(=O)Nc3ccc(-c4ccc(-c5ccc(NC(=O)[C@@H]6CCCN6C(=O)[C@@H](c6ccccc6)N(C)C)cc5)o4)cc3)nc(Cl)cc12` [JG-65, (2S)-1-((3-chloro-5-methoxy-1-isoquinolinyl)carbonyl)-N-(4-(5-(4-((((2S)-1-((2R)-2-(dimethylamino)-2-phenylacetyl)-2-pyrrolidinyl)carbonyl)amino)phenyl)-2-furyl)phenyl)-2-pyrrolidinecarboxamide], the EC50 was under 4.57 nM. In the case of `CCC(=O)N1CCC[C@H]1C(=O)Nc1ccc(-c2cc(-c3ccc(NC(=O)[C@@H]4CCCN4C(=O)CC)cc3)[nH]n2)cc1` [OL-32, (2S,2′S)-N,N′-(1H-pyrazole-3,5-diyldi-4,1-phenylene)bis(1-propionyl-2-pyrrolidinecarboxamide)], the EC50 is reported as 1000 to 10000 nM. For `CC(=O)N1CCC[C@H]1C(=O)Nc1ccc(-c2nc(-c3ccc(NC(=O)[C@@H]4CCCN4C(=O)Cc4ccccc4)cc3)cs2)cc1` [Example D-45, (2S)-1-acetyl-N-(4-(4-(4-((((2S)-1-(phenylacetyl)-2-pyrrolidinyl)carbonyl)amino)phenyl)-1,3-thiazol-2-yl)phenyl)-2-pyrrolidinecarboxamide], the EC50 was 100 to 999 nM. Molecule `C[C@H](NC(=O)OCc1ccccc1)C(=O)Nc1ccc(-c2n[nH]c(=O)n2-c2ccc(NC(=O)[C@H](C)NC(=O)OCc3ccccc3)cc2)cc1` [OL-12, [(1,5-dihydro-5-oxo-4H-1,2,4-triazole-3,4-diyl)bis[4,1-phenyleneimino[(1S)-1-methyl-2-oxo-2,1-ethanediyl]]]bis-carbamic acid, bis(phenylmethyl) ester] has an EC50 of 1000 to 10000 nM. `CC(O)(C(=O)N1CCC[C@H]1C(=O)Nc1ccc(-c2ccc(-c3ccc(NC(=O)[C@@H]4CCCN4C(=O)[C@@](C)(O)c4ccccc4)cc3)o2)cc1)c1ccccc1` (stereo partly drawn) [JG-59, (2S)-1-((2S)-2-hydroxy-2-phenylpropanoyl)-N-(4-(5-(4-((((2S)-1-(2-hydroxy-2-phenylpropanoyl)-2-pyrrolidinyl)carbonyl)amino)phenyl)-2-furyl)phenyl)-2-pyrrolidinecarboxamide] gave an EC50 of under 4.57 nM. `CCOC(=O)Cc1nc(-c2ccc(NC(=O)[C@H](C)NC(=O)OCc3ccccc3)cc2)c(-c2ccc(NC(=O)[C@H](C)NC(=O)OCc3ccccc3)cc2)o1` [OL-1d, 4,5-bis[4-[[(2S)-1-oxo-2-[[(phenylmethoxy)carbonyl]amino]propyl]amino]phenyl]-2-oxazoleacetic acid, ethyl ester] showed an EC50 of 1000 to 10000 nM. Work on `C[C@H](NC(=O)OCc1ccccc1)C(=O)Nc1ccc(-c2nncn2-c2ccc(NC(=O)[C@H](C)NC(=O)OCc3ccccc3)cc2)cc1` [OL-16, [(1S)-1-methyl-2-oxo-2-[[4-[3-[4-[[(2S)-1-oxo-2-[[(phenylmethoxy)carbonyl]amino]propyl]amino]phenyl]-4H-1,2,4-triazol-4-yl]phenyl]amino]ethyl]-carbamic acid, phenylmethyl ester] yielded an EC50 of 1000 to 10000 nM. `O=C(Nc1ccc(-c2cc(-c3ccc(NC(=O)[C@@H]4CCCN4C(=O)Cc4ccccc4)cc3)[nH]n2)cc1)[C@@H]1CCCN1C(=O)Cc1ccccc1` [OL-27, (2S,2′S)-N,N′-(1H-pyrazole-3,5-diyldi-4,1-phenylene)bis[1-(phenylacetyl)-2-pyrrolidinecarboxamide]] was tested, and the EC50 was 4.57 to 99 nM. `O=C(Nc1ccc(-c2n[nH]nc2-c2ccc(NC(=O)[C@@H]3CCCN3C(=O)OCc3ccccc3)cc2)cc1)[C@@H]1CCCN1C(=O)OCc1ccccc1` [OL-19, (2S,2′S)-2,2′-[1H-1,2,3-triazole-4,5-diylbis(4,1-phenyleneiminocarbonyl)]bis-1-pyrrolidinecarboxylic acid, bis(phenylmethyl) ester] gave an EC50 of 4.57 to 99 nM.

Same assay, conditions: Hepatitis C virus, HCV 1b genotype replicon; class symbols; read-out: EC50 Range against HCV 1b
Work on `Cc1cccc(CC(=O)N2C[C@H](O)C[C@H]2C(=O)Nc2ccc(-c3cnc(-c4ccc(NC(=O)[C@@H]5C[C@@H](O)CN5C(=O)Cc5cccc(C)c5)cc4)o3)cc2)c1` [XY-51, (2S,4R,2′S,4′R)-N,N′-(1,3-oxazole-2,5-diyldi-4,1-phenylene)bis(4-hydroxy-1-((3-methylphenyl)acetyl)-2-pyrrolidinecarboxamide)] yielded an EC50 of 100 to 999 nM. Molecule `O=C(Nc1ccc(-c2cnc(-c3ccc(NC(=O)[C@@H]4CCCN4C(=O)C4CCCO4)cc3)o2)cc1)[C@@H]1CCCN1C(=O)C1CCCO1` (stereo partly drawn) [XY-31, (2S,2′S)-N,N′-(1,3-oxazole-2,5-diyldi-4,1-phenylene)bis(1-(tetrahydro-2-furanylcarbonyl)-2-pyrrolidinecarboxamide)] has an EC50 of 4.57 to 99 nM. `O=C(Nc1ccc(-c2cnc(-c3ccc(NC(=O)[C@@H]4CCCN4C(=O)C(c4ccccc4)n4c(=O)[nH]c5ccccc54)cc3)o2)cc1)[C@@H]1CCCN1C(=O)C(c1ccccc1)n1c(=O)[nH]c2ccccc21` (stereo partly drawn) [JR-11, (2S,2′S)-N,N′-(2,5-oxazolediyldi-4,1-phenylene)bis[1-[(2,3-dihydro-2-oxo-1H-benzimidazol-1-yl)phenylacetyl]-2-pyrrolidinecarboxamide]] gave an EC50 of 100 to 999 nM. Work on `Cc1noc(C)c1C(=O)N1CCC[C@H]1C(=O)Nc1ccc(-c2cnc(-c3ccc(NC(=O)[C@@H]4CCCN4C(=O)c4c(C)noc4C)cc3)o2)cc1` [XY-28, (2S,2′S)-N,N′-(1,3-oxazole-2,5-diyldi-4,1-phenylene)bis(1-((3,5-dimethyl-4-isoxazolyl)carbonyl)-2-pyrrolidinecarboxamide)] yielded an EC50 of 100 to 999 nM. Work on `CC1CC1C(=O)N1CCC[C@H]1C(=O)Nc1ccc(-c2cnc(-c3ccc(NC(=O)[C@@H]4CCCN4C(=O)C4CC4C)cc3)o2)cc1` (stereo partly drawn) [XY-16, (2S,2′S)-N,N′-(1,3-oxazole-2,5-diyldi-4,1-phenylene)bis(1-((2-methylcyclopropyl)carbonyl)-2-pyrrolidinecarboxamide)] yielded an EC50 of 100 to 999 nM. `O=C(Nc1ccc(-c2cnc(-c3ccc(NC(=O)[C@@H]4C[C@@H](O)CN4C(=O)C4CCC4)cc3)o2)cc1)[C@@H]1C[C@@H](O)CN1C(=O)C1CCC1` [XY-46, (2S,4R,2′S,4′R)-N,N′-(1,3-oxazole-2,5-diyldi-4,1-phenylene)bis(1-(cyclobutylcarbonyl)-4-hydroxy-2-pyrrolidinecarboxamide)] gave an EC50 of 100 to 999 nM. In the case of `O=C(Nc1ccc(-c2cnc(-c3ccc(NC(=O)[C@@H]4CCCN4C(=O)c4cc(F)cc(F)c4)cc3)o2)cc1)[C@@H]1CCCN1C(=O)c1cc(F)cc(F)c1` [XY-7, (2S,2′S)-N,N′-(1,3-oxazole-2,5-diyldi-4,1-phenylene)bis(1-(3,5-difluorobenzoyl)-2-pyrrolidinecarboxamide)], the EC50 is reported as 100 to 999 nM.

Same assay, conditions: Hepatitis C virus, HCV 1b genotype replicon; read-out: EC50 1b
`O=C(Nc1ccc(-c2nc[nH]c2-c2ccc(NC(=O)[C@@H]3CCCN3C(=O)c3nccc4ccccc34)cc2)cc1)[C@@H]1CCCN1C(=O)c1nccc2ccccc12` [JG-48, (2S,2′S)-N,N′-(1H-imidazole-4,5-diyldi-4,1-phenylene)bis(1-(1-isoquinolinylcarbonyl)-2-pyrrolidinecarboxamide)] gave an EC50 of 2340 nM. `O=C(Nc1ccc(-c2cnc(-c3ccc(NC(=O)[C@@H]4CCCN4C(=O)C4CCCO4)cc3)o2)cc1)[C@@H]1CCCN1C(=O)C1CCCO1` (stereo partly drawn) [XY-31, (2S,2′S)-N,N′-(1,3-oxazole-2,5-diyldi-4,1-phenylene)bis(1-(tetrahydro-2-furanylcarbonyl)-2-pyrrolidinecarboxamide)] was tested, and the EC50 was 54 nM. Molecule `O=C(Nc1ccc(-c2cc(-c3ccc(NC(=O)[C@@H]4CCCN4C(=O)Cc4ccccc4)cc3)[nH]n2)cc1)[C@@H]1CCCN1C(=O)Cc1ccccc1` [OL-27, (2S,2′S)-N,N′-(1H-pyrazole-3,5-diyldi-4,1-phenylene)bis[1-(phenylacetyl)-2-pyrrolidinecarboxamide]] has an EC50 of 10 nM.
